Assay results from patent US10167257B2, “Indole derivatives for use in medicine” (IOmet Pharma Ltd., priority 2014, dated 2019).

What was measured:
[1] = target: T1, IDO (SKOV-3 cells) (Homo sapiens, UniProt P14902); assay: IDO cell-based assay (SKOV-3, IFNγ-induced), kynurenine production; details: SKOV-3 ovary adenocarcinoma cells, IFNγ 500 ng/ml, 500 μM L-Trp, 48 h, kynurenine by absorbance at 490 nm
T1 construct: This assay utilised cancer cells which expressed either TDO or IDO; host or cells: SKOV-3 ovary adenocarcinoma cells, IFNγ-induced
T1 sequence (P14902 whole entry): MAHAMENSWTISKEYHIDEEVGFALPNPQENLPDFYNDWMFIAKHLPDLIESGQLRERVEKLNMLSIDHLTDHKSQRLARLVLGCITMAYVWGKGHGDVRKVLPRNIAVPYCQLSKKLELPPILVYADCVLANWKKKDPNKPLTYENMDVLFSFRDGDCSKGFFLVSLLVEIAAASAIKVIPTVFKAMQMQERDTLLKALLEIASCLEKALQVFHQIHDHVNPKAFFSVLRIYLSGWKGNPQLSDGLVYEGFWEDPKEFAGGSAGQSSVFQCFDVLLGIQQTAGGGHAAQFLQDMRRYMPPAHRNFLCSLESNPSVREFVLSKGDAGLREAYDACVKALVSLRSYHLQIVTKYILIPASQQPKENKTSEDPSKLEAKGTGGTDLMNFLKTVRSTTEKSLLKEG
Procedure, shortened: (§1)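 Kynurenine output was read at 490 nm after 5 min with 1% Ehrlich's reagent, using supernatants from 48 h, 37 °C cultures containing 500 μM L-Trp and test compound. TDO activity came from A172 cells. IDO activity came from SKOV-3 cells, whose expression was induced by adding 500 ng/ml IFNγ.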

[2] = target: T2, TDO (A172 cells) (Homo sapiens, UniProt P48775); assay: TDO cell-based assay (A172), kynurenine production; details: A172 human glioblastoma cells, 500 μM L-Trp, 48 h, kynurenine by absorbance at 490 nm
T2 construct: This assay utilised cancer cells which expressed either TDO or IDO; host or cells: A172 human glioblastoma cells
T2 sequence (P48775 whole entry): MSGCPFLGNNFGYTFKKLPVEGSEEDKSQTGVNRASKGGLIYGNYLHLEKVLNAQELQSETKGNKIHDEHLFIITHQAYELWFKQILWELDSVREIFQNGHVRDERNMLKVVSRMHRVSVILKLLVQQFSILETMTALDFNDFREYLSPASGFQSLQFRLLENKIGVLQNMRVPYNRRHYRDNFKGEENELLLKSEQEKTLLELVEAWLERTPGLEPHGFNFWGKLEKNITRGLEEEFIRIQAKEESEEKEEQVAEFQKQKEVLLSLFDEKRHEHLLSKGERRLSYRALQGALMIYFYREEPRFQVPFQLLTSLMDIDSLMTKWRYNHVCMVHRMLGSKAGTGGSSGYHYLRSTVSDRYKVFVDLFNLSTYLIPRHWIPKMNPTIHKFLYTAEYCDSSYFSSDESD
Procedure, shortened: as §1

SMILES | IDO cellular assay (SKOV3) pIC50 [1] | TDO cellular assay (A172) pIC50 [2]
COc1ccc2[nH]c(C(=O)NC3(c4cnn(C)c4)CC3)cc2c1 [Compound 176] | +++ (+++ = pIC50 ≥5.50) | − (− = pIC50 <4.50)
COCCc1noc(C(C)NC(=O)c2cc3cc(Cl)ccc3[nH]2)n1 (stereo not shown) [Compound 130] | ++ (++ = pIC50 5.00-<5.50) | − (− = pIC50 <4.50)
O=C(NCc1ccc(Cl)cc1)c1cc2ccccc2[nH]1 [Compound 9] | +++ (+++ = pIC50 ≥5.50) | − (− = pIC50 <4.50)
O=C(NC1(c2ccccc2)CC1)c1cc2ccc(C(F)F)cc2[nH]1 [Compound 189] | ++ (++ = pIC50 5.00-<5.50) | − (− = pIC50 <4.50)
O=C(NCc1ccccc1)c1cc2ccccc2[nH]1 [Compound 10] | − (− = pIC50 <4.50) | + (+ = pIC50 4.50-<5.00)
COc1cccc(-n2cc(CNC(=O)c3cc4cc(Cl)ccc4[nH]3)cn2)c1 [Compound 112] | +++ (+++ = pIC50 ≥5.50) | − (− = pIC50 <4.50)
O=C(NCCc1nccs1)c1cc2cc(Cl)ccc2[nH]1 [Compound 110] | ++ (++ = pIC50 5.00-<5.50) | − (− = pIC50 <4.50)
O=C(Nc1cccc2ncccc12)c1cc2cc(F)ccc2[nH]1 [Compound 41] | +++ (+++ = pIC50 ≥5.50) | − (− = pIC50 <4.50)
Cc1noc(C(C)NC(=O)c2cc3cc(Cl)ccc3[nH]2)n1 (stereo not shown) [Compound 199] | +++ (+++ = pIC50 ≥5.50) | − (− = pIC50 <4.50)
Cc1cc(C2(NC(=O)c3cc4cc(C#N)ccc4[nH]3)CC2)no1 [Compound 219] | +++ (+++ = pIC50 ≥5.50) | − (− = pIC50 <4.50)
O=C(NC1(c2ccccc2)CC1)c1cc2cc(OC(F)(F)F)ccc2[nH]1 [Compound 248] | +++ (+++ = pIC50 ≥5.50) | − (− = pIC50 <4.50)
COCCOc1ccc(C(C)NC(=O)c2cc3cc(Cl)ccc3[nH]2)cc1 (stereo not shown) [Compound 100] | +++ (+++ = pIC50 ≥5.50) | ++ (++ = pIC50 5.00-<5.50)
Cc1nc(C2(NC(=O)c3cc4cc(Cl)ccc4[nH]3)CC2)co1 [Compound 225] | +++ (+++ = pIC50 ≥5.50) | − (− = pIC50 <4.50)
COc1ccc(-n2cc(C(C)NC(=O)c3cc4cc(Cl)ccc4[nH]3)cn2)cc1OC (stereo not shown) [Compound 207] | +++ (+++ = pIC50 ≥5.50) | + (+ = pIC50 4.50-<5.00)
C[C@H](NC(=O)c1cc2cc(F)ccc2[nH]1)c1ccccc1 [Compound 40] | + (+ = pIC50 4.50-<5.00) | ++ (++ = pIC50 5.00-<5.50)
COc1ccc(C(NC(=O)c2cc3ccccc3[nH]2)C2CC2)cc1 (stereo not shown) [Compound 18] | +++ (+++ = pIC50 ≥5.50) | − (− = pIC50 <4.50)
COc1ccc(C2(NC(=O)c3cc4cc(Cl)ccc4[nH]3)CC2)cc1 [Compound 150] | +++ (+++ = pIC50 ≥5.50) | ++ (++ = pIC50 5.00-<5.50)
N#Cc1ccc2[nH]c(C(=O)NC3(c4ccc(F)cc4)COC3)cc2c1 [Compound 245] | +++ (+++ = pIC50 ≥5.50) | − (− = pIC50 <4.50)
COc1ccc2cc(C(=O)N[C@H](C)c3ccccc3)[nH]c2c1 [Compound 159] | ++ (++ = pIC50 5.00-<5.50) | − (− = pIC50 <4.50)

SMILES | IDO cellular assay (SKOV3) pIC50 [1] | TDO cellular assay (A172) pIC50 [2]
Cn1cc(C2(NC(=O)c3cc4cc(C#N)ccc4[nH]3)CC2)cn1 [Compound 145] | +++ (+++ = pIC50 ≥5.50) | − (− = pIC50 <4.50)
CC(C)Oc1ccc2[nH]c(C(=O)N[C@H](C)c3ccccc3)cc2c1 [Compound 260] | +++ (+++ = pIC50 ≥5.50) | + (+ = pIC50 4.50-<5.00)
O=C(NC1(c2nc(-c3ccccc3)no2)CC1)c1cc2cc(Cl)ccc2[nH]1 [Compound 140] | +++ (+++ = pIC50 ≥5.50) | − (− = pIC50 <4.50)
Cn1cc(C2(NC(=O)c3cc4ccc(O)cc4[nH]3)CC2)cn1 [Compound 196] | + (+ = pIC50 4.50-<5.00) | − (− = pIC50 <4.50)
O=C(NC(c1ccccc1)C1CC1)c1cc2cc(Cl)ccc2[nH]1 (stereo not shown) [Compound 99] | +++ (+++ = pIC50 ≥5.50) | + (+ = pIC50 4.50-<5.00)
CC(C)C(NC(=O)c1cc2cc(F)ccc2[nH]1)c1cccs1 (stereo not shown) [Compound 23] | +++ (+++ = pIC50 ≥5.50) | − (− = pIC50 <4.50)
O=C(NC1CCc2ccccc21)c1cc2ccccc2[nH]1 (stereo not shown) [Compound 6] | + (+ = pIC50 4.50-<5.00) | + (+ = pIC50 4.50-<5.00)
O=C(NC1(c2ccccc2)CC1)c1cc2cc(C(F)(F)F)ccc2[nH]1 [Compound 156] | +++ (+++ = pIC50 ≥5.50) | − (− = pIC50 <4.50)
O=C(NC1(c2ccccc2)COC1)c1cc2cc(Cl)cc(F)c2[nH]1 [Compound 227] | +++ (+++ = pIC50 ≥5.50) | ++ (++ = pIC50 5.00-<5.50)
COc1cccc(-n2cc(C(C)NC(=O)c3cc4cc(Cl)ccc4[nH]3)cn2)c1 (stereo not shown) [Compound 125] | +++ (+++ = pIC50 ≥5.50) | + (+ = pIC50 4.50-<5.00)
O=C(NC1(c2ccccc2)CC1)c1cc2cc(Br)ccc2[nH]1 [Compound 253] | +++ (+++ = pIC50 ≥5.50) | − (− = pIC50 <4.50)
CC(NC(=O)c1cc2cc(F)ccc2[nH]1)c1ccccc1 (stereo not shown) [Compound 4] | ++ (++ = pIC50 5.00-<5.50) | + (+ = pIC50 4.50-<5.00)
O=C(NC1CCCc2ccccc21)c1cc2ccccc2[nH]1 (stereo not shown) [Compound 66] | ++ (++ = pIC50 5.00-<5.50) | − (− = pIC50 <4.50)
Cn1cc(C2(NC(=O)c3cc4cc(O)ccc4[nH]3)CC2)cn1 [Compound 211] | + (+ = pIC50 4.50-<5.00) | − (− = pIC50 <4.50)
CC(NC(=O)c1cc2cc(Cl)ccc2[nH]1)c1ccc(S(C)(=O)=O)cc1 (stereo not shown) [Compound 84] | +++ (+++ = pIC50 ≥5.50) | ++ (++ = pIC50 5.00-<5.50)
Cc1ccc2[nH]c(C(=O)NC(C)c3cccc(F)c3)cc2c1 (stereo not shown) [Compound 15] | +++ (+++ = pIC50 ≥5.50) | ++ (++ = pIC50 5.00-<5.50)
CC(NC(=O)c1cc2cc(Cl)ccc2[nH]1)c1ccc(N2CCN(C)CC2)cc1 (stereo not shown) [Compound 95] | + (+ = pIC50 4.50-<5.00) | − (− = pIC50 <4.50)
Cc1ccnc(C(NC(=O)c2cc3cc(Cl)ccc3[nH]2)C2CC2)c1 (stereo not shown) [Compound 107] | ++ (++ = pIC50 5.00-<5.50) | − (− = pIC50 <4.50)
O=C(NCc1cccs1)c1cc2ccccc2[nH]1 [Compound 13] | + (+ = pIC50 4.50-<5.00) | − (− = pIC50 <4.50)
